Assay results taken from patent US20250122174A1 (Shenzhen Yuanli Shenwan Innovative Medicine Co., Ltd., priority 2022, published 2025).

molecular target: HPK1 (Homo sapiens (Human), UniProt Q92918); test: HPK1 Inhibition Assay (ADP-Glo kinase assay); type: biochemical; conditions: ATP 10 μM
In short: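 ADP-Glo luminescence read-out after 1 h room-temperature kinase reaction with 10 μM ATP and 0.1 μg/ml MBP. Recombinant human HPK1 at 7.5 ng/μl; buffer 40 mM Tris pH 7.5, 20 mM MgCl2. Compounds serially diluted 5-fold over 10 points from 10 mM DMSO stock.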

Sequence of HPK1 (Q92918 1-346 limits assumed): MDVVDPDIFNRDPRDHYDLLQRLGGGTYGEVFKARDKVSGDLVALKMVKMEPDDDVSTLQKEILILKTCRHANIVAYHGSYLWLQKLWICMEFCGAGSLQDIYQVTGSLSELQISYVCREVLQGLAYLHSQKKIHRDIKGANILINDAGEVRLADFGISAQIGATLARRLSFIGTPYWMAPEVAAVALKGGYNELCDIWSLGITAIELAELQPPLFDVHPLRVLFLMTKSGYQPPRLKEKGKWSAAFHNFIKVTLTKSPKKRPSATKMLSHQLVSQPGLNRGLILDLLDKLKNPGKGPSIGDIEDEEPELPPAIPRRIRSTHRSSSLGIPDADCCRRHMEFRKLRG

IC50, < 100 nM:
CC[C@@H](C)n1ncc2c(N3C[C@@H](C)[C@@H](N)C3)c(NC(=O)c3ccc(=O)n(-c4c(F)cccc4F)n3)ccc21 [Example 257, N-(4-((3R,4R)-3-amino-4-methylpyrrolidin-1-yl)-1-((R)-sec-butyl)-1H-indazol-5-yl)-1-(2,6-difluorophenyl)-6-oxo-1,6-dihydropyridazine-3-carboxamide]
C[C@@H]1CN(c2c(NC(=O)c3ccc(=O)n(-c4c(F)cccc4F)n3)ccc3c2cnn3C2COC2)C[C@@H]1N [Example 258, N-(4-((3R,4R)-3-amino-4-methylpyrrolidin-1-yl)-1-(oxetan-3-yl)-1H-indazol-5-yl)-1-(2,6-difluorophenyl)-6-oxo-1,6-dihydropyridazine-3-carboxamide]
C[C@H]1CN(c2c(NC(=O)c3ccc(=O)n(-c4c(F)cccc4F)n3)ccc3c2cnn3[C@@H]2CCOC2)C[C@@H]1N [Example 259, N-(4-((3R,4S)-3-amino-4-methylpyrrolidin-1-yl)-1-((R)-tetrahydrofuran-3-yl)-1H-indazol-5-yl)-1-(2,6-difluorophenyl)-6-oxo-1,6-dihydropyridazine-3-carboxamide]
C[C@H]1CN(c2c(NC(=O)c3ccc(=O)n(-c4c(F)cccc4F)n3)ccc3c2cnn3[C@H]2CCOC2)C[C@@H]1N [Example 260, N-(4-((3R,4S)-3-amino-4-methylpyrrolidin-1-yl)-1-((S)-tetrahydrofuran-3-yl)-1H-indazol-5-yl)-1-(2,6-difluorophenyl)-6-oxo-1,6-dihydropyridazine-3-carboxamide]
C[C@@H]1CN(c2c(NC(=O)c3ccc(=O)n(-c4c(F)cccc4F)n3)ccc3c2cnn3C2CCOCC2)C[C@@H]1N [Example 261, N-(4-((3R,4R)-3-amino-4-methylpyrrolidin-1-yl)-1-(tetrahydro-2H-pyran-4-yl)-1H-indazol-5-yl)-1-(2,6-difluorophenyl)-6-oxo-1,6-dihydropyridazine-3-carboxamide]
C[C@@H]1CN(c2c(NC(=O)c3ccc(=O)n(-c4c(F)cccc4F)n3)ccc3c2cnn3[C@@H]2CCOC2)C[C@@H]1N [Example 262, N-(4-((3R,4R)-3-amino-4-methylpyrrolidin-1-yl)-1-((R)-tetrahydrofuran-3-yl)-1H-indazol-5-yl)-1-(2,6-difluorophenyl)-6-oxo-1,6-dihydropyridazine-3-carboxamide]
N[C@@H]1CCCN(c2c(NC(=O)c3ccc(=O)n(-c4c(F)cccc4F)n3)ccc3c2cnn3[C@H]2CCOC2)C1 [Example 263, N-(4-((R)-3-aminopiperidin-1-yl)-1-((S)-tetrahydrofuran-3-yl)-1H-indazol-5-yl)-1-(2,6-difluorophenyl)-6-oxo-1,6-dihydropyridazine-3-carboxamide]
N[C@@H]1CCCN(c2c(NC(=O)c3ccc(=O)n(-c4c(F)cccc4F)n3)ccc3c2cnn3[C@@H]2CCOC2)C1 [Example 264, N-(4-((R)-3-aminopiperidin-1-yl)-1-((R)-tetrahydrofuran-3-yl)-1H-indazol-5-yl)-1-(2,6-difluorophenyl)-6-oxo-1,6-dihydropyridazine-3-carboxamide]
NC1CCN(c2c(NC(=O)c3ccc(=O)n(-c4c(F)cccc4F)n3)ccc3c2cnn3[C@@H]2CCOC2)CC1 [Example 265, (R)-N-(4-(4-aminopiperidin-1-yl)-1-(tetrahydrofuran-3-yl)-1H-indazol-5-yl)-1-(2,6-difluorophenyl)-6-oxo-1,6-dihydropyridazine-3-carboxamide]
NC1CCN(c2c(NC(=O)c3ccc(=O)n(-c4c(F)cccc4F)n3)ccc3c2cnn3[C@H]2CCOC2)CC1 [Example 266, (S)-N-(4-(4-aminopiperidin-1-yl)-1-(tetrahydrofuran-3-yl)-1H-indazol-5-yl)-1-(2,6-difluorophenyl)-6-oxo-1,6-dihydropyridazine-3-carboxamide]
